In the supplement of paper PMC10307832:

What was measured:
Assay in all cases: relative viability (nuclei count vs DMSO), 5 days (fraction); higher = more cells survive
201T = system: 201T
Method in brief: (§1)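 After 5 days of treatment, lung cancer cells in 1536-well plates were fixed and stained in a single step (final 0.05% Triton X-100, 1% formaldehyde, 1 ug/ml Hoechst) and their nuclei counted on 4× images. Treatment had been applied by pin tool the day after seeding as one drug alone or as a fixed anchor-drug dose with five library-drug doses (not always all listed) in √10 steps. Relative viability is the nuclei count of treated wells divided by that of vehicle wells, and values are medians of duplicate plates.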

BEN = system: BEN
Method in brief: as §1

HCC-366 = system: HCC-366
Method in brief: as §1

HCC-44 = system: HCC-44
Method in brief: as §1

HCC-78 = system: HCC-78
Method in brief: as §1

LOU-NH91 = system: LOU-NH91
Method in brief: as §1

LU99A = system: LU99A
Method in brief: as §1

NCI-H1355 = system: NCI-H1355
Method in brief: as §1

NCI-H1395 = system: NCI-H1395
Method in brief: as §1

NCI-H1734 = system: NCI-H1734
Method in brief: as §1

NCI-H1975 = system: NCI-H1975
Method in brief: as §1

NCI-H2085 = system: NCI-H2085
Method in brief: as §1

NCI-H2087 = system: NCI-H2087
Method in brief: as §1

NCI-H2126 = system: NCI-H2126
Method in brief: as §1

NCI-H322M = system: NCI-H322M
Method in brief: as §1

NCI-H358 = system: NCI-H358
Method in brief: as §1

NCI-H647 = system: NCI-H647
Method in brief: as §1

NCI-H727 = system: NCI-H727
Method in brief: as §1

PC-14 = system: PC-14
Method in brief: as §1

SK-LU-1 = system: SK-LU-1
Method in brief: as §1

SK-MES-1 = system: SK-MES-1
Method in brief: as §1

UMC-11 = system: UMC-11
Method in brief: as §1

For `C=C1C(=O)O[C@@H](CCCCCCCC)[C@@H]1C(=O)O` [C-75] + Nc1ncn([C@H]2C[C@H](O)[C@@H](CO)O2)c(=O)n1 [Decitabine] (partner 2 µM), the relative viability (201T; first compound 0.08 µM) was 0.844, the relative viability (201T; first compound 0.253 µM) was 0.938 and the relative viability (201T; first compound 0.8 µM) was 0.842. It also gave a relative viability (201T; first compound 2.53 µM) of 0.627, a relative viability (201T; first compound 8 µM) of 0.813 and a relative viability (BEN; first compound 0.08 µM) of 0.764. The relative viability (BEN; first compound 0.253 µM) was 0.733, the relative viability (BEN; first compound 0.8 µM) was 0.654 and the relative viability (BEN; first compound 2.53 µM) was 0.738. It also gave a relative viability (BEN; first compound 8 µM) of 0.713, a relative viability (HCC-366; first compound 0.08 µM) of 0.357 and a relative viability (HCC-366; first compound 0.253 µM) of 0.361. The relative viability (HCC-366; first compound 0.8 µM) was 0.385, the relative viability (HCC-366; first compound 2.53 µM) was 0.344 and the relative viability (HCC-366; first compound 8 µM) was 0.289. The relative viability (HCC-44; first compound 0.08 µM) was 1.02, the relative viability (HCC-44; first compound 0.253 µM) was 0.922 and the relative viability (HCC-44; first compound 0.8 µM) was 0.946. For the same compound, the relative viability (HCC-44; first compound 2.53 µM) was 0.8, the relative viability (HCC-44; first compound 8 µM) was 0.903 and the relative viability (HCC-78; first compound 0.08 µM) was 0.693. For the same compound, the relative viability (HCC-78; first compound 0.253 µM) was 0.676, the relative viability (HCC-78; first compound 0.8 µM) was 0.72 and the relative viability (HCC-78; first compound 8 µM) was 0.667. It also gave a relative viability (LOU-NH91; first compound 0.08 µM) of 0.83, a relative viability (LOU-NH91; first compound 0.253 µM) of 0.734 and a relative viability (LOU-NH91; first compound 0.8 µM) of 0.752. The relative viability (LOU-NH91; first compound 8 µM) was 0.792, the relative viability (LU99A; first compound 0.08 µM) was 0.831 and the relative viability (LU99A; first compound 0.253 µM) was 0.78. It also gave a relative viability (LU99A; first compound 0.8 µM) of 0.841, a relative viability (LU99A; first compound 2.53 µM) of 0.83 and a relative viability (LU99A; first compound 8 µM) of 0.79. It also gave a relative viability (NCI-H1355; first compound 0.08 µM) of 0.333, a relative viability (NCI-H1355; first compound 0.253 µM) of 0.374 and a relative viability (NCI-H1355; first compound 0.8 µM) of 0.36. For the same compound, the relative viability (NCI-H1355; first compound 2.53 µM) was 0.324, the relative viability (NCI-H1355; first compound 8 µM) was 0.355 and the relative viability (NCI-H1395; first compound 0.08 µM) was 0.74. The relative viability (NCI-H1395; first compound 0.253 µM) was 0.674, the relative viability (NCI-H1395; first compound 2.53 µM) was 0.667 and the relative viability (NCI-H1395; first compound 8 µM) was 0.69. It also gave a relative viability (NCI-H1734; first compound 0.08 µM) of 0.516, a relative viability (NCI-H1734; first compound 0.253 µM) of 0.589 and a relative viability (NCI-H1734; first compound 0.8 µM) of 0.457. The relative viability (NCI-H1734; first compound 2.53 µM) was 0.264, the relative viability (NCI-H1734; first compound 8 µM) was 0.448 and the relative viability (NCI-H1975; first compound 0.08 µM) was 0.373. For the same compound, the relative viability (NCI-H1975; first compound 0.253 µM) was 0.334, the relative viability (NCI-H1975; first compound 0.8 µM) was 0.32 and the relative viability (NCI-H1975; first compound 2.53 µM) was 0.299. For the same compound, the relative viability (NCI-H1975; first compound 8 µM) was 0.431, the relative viability (NCI-H2085; first compound 0.08 µM) was 0.535 and the relative viability (NCI-H2085; first compound 0.253 µM) was 0.587. The relative viability (NCI-H2085; first compound 0.8 µM) was 0.465, the relative viability (NCI-H2085; first compound 2.53 µM) was 0.447 and the relative viability (NCI-H2085; first compound 8 µM) was 0.434. For the same compound, the relative viability (NCI-H2087; first compound 0.08 µM) was 0.281, the relative viability (NCI-H2087; first compound 0.253 µM) was 0.269 and the relative viability (NCI-H2087; first compound 0.8 µM) was 0.35. The relative viability (NCI-H2087; first compound 2.53 µM) was 0.217, the relative viability (NCI-H2087; first compound 8 µM) was 0.231 and the relative viability (NCI-H2126; first compound 0.08 µM) was 0.598. It also gave a relative viability (NCI-H2126; first compound 0.253 µM) of 0.617, a relative viability (NCI-H2126; first compound 0.8 µM) of 0.609 and a relative viability (NCI-H2126; first compound 2.53 µM) of 0.561. The relative viability (NCI-H2126; first compound 8 µM) was 0.534, the relative viability (NCI-H322M; first compound 0.08 µM) was 0.693 and the relative viability (NCI-H322M; first compound 0.253 µM) was 0.782. The relative viability (NCI-H322M; first compound 0.8 µM) was 0.604, the relative viability (NCI-H322M; first compound 8 µM) was 0.66 and the relative viability (NCI-H358; first compound 0.08 µM) was 0.212. For the same compound, the relative viability (NCI-H358; first compound 0.253 µM) was 0.211, the relative viability (NCI-H358; first compound 0.8 µM) was 0.203 and the relative viability (NCI-H358; first compound 8 µM) was 0.18. It also gave a relative viability (NCI-H647; first compound 0.08 µM) of 0.332, a relative viability (NCI-H647; first compound 0.253 µM) of 0.422 and a relative viability (NCI-H647; first compound 0.8 µM) of 0.365. It also gave a relative viability (NCI-H647; first compound 2.53 µM) of 0.306, a relative viability (NCI-H647; first compound 8 µM) of 0.234 and a relative viability (NCI-H727; first compound 0.08 µM) of 0.887. The relative viability (NCI-H727; first compound 0.253 µM) was 0.955, the relative viability (NCI-H727; first compound 0.8 µM) was 0.807 and the relative viability (NCI-H727; first compound 2.53 µM) was 0.767. The relative viability (NCI-H727; first compound 8 µM) was 0.873, the relative viability (PC-14; first compound 0.08 µM) was 0.226 and the relative viability (PC-14; first compound 0.253 µM) was 0.233. It also gave a relative viability (PC-14; first compound 0.8 µM) of 0.216, a relative viability (PC-14; first compound 2.53 µM) of 0.191 and a relative viability (PC-14; first compound 8 µM) of 0.168. For the same compound, the relative viability (SK-LU-1; first compound 0.08 µM) was 0.64, the relative viability (SK-LU-1; first compound 0.253 µM) was 0.588 and the relative viability (SK-LU-1; first compound 0.8 µM) was 0.616. For the same compound, the relative viability (SK-LU-1; first compound 2.53 µM) was 0.532, the relative viability (SK-LU-1; first compound 8 µM) was 0.467 and the relative viability (SK-MES-1; first compound 0.08 µM) was 0.439. For the same compound, the relative viability (SK-MES-1; first compound 0.253 µM) was 0.367, the relative viability (SK-MES-1; first compound 0.8 µM) was 0.368 and the relative viability (SK-MES-1; first compound 2.53 µM) was 0.412. For the same compound, the relative viability (SK-MES-1; first compound 8 µM) was 0.311, the relative viability (UMC-11; first compound 0.08 µM) was 0.696 and the relative viability (UMC-11; first compound 0.253 µM) was 0.642. It also gave a relative viability (UMC-11; first compound 0.8 µM) of 0.577, a relative viability (UMC-11; first compound 2.53 µM) of 0.642 and a relative viability (UMC-11; first compound 8 µM) of 0.434.
